For one experiment, the target named is T1, Human DNA polymerase γ (Homo sapiens, UniProt P54098).
T1 construct: made in house
T1 sequence (P54098 1-1239): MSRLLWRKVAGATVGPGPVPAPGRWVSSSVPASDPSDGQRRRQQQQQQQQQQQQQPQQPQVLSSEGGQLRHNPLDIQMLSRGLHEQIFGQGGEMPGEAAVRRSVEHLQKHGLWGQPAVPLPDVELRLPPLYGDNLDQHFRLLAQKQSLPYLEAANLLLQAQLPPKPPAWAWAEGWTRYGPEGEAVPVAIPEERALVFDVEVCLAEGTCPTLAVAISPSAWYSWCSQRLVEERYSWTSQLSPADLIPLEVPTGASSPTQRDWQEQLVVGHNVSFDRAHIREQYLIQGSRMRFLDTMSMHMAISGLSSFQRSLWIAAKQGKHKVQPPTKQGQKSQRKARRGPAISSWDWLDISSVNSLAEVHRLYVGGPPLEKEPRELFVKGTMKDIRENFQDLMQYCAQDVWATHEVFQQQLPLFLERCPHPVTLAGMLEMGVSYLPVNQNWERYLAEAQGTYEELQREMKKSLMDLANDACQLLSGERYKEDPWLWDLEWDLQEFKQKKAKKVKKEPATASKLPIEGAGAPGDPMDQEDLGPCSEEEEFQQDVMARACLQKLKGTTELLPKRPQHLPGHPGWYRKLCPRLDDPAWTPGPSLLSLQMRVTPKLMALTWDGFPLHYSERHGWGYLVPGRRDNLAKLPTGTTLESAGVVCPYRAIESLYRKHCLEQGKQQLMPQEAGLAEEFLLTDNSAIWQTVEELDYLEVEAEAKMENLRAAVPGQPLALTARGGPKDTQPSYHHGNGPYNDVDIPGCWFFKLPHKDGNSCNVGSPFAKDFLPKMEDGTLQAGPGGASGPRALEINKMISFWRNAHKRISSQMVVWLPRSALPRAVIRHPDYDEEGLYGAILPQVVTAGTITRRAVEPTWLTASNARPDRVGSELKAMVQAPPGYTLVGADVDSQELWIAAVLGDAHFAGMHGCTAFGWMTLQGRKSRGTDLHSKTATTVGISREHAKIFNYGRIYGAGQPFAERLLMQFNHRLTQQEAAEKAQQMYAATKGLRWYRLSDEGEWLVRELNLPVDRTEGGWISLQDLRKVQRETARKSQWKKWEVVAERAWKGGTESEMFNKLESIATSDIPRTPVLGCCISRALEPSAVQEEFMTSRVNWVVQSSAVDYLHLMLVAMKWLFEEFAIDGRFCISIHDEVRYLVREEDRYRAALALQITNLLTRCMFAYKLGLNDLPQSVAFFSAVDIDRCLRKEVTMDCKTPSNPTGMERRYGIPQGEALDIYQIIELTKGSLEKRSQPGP
Kind of experiment: DNA polymerase activity assay, human pol γ. Type of experiment: biochemical. How it is done:
(§1) Pols from mammals, a fish (cherry salmon), an insect (fruit fly) and a plant (cauliflower) were purified, and prokaryotic pols and other DNA metabolic enzymes, such as T7 RNA polymerase, T4 polynucleotide kinase and bovine deoxyribonuclease I, were purchased as described in our previous report. The activities of all pols and other DNA metabolic enzymes were measured as described in previous reports.
The components of the pol assay were poly(dA)/oligo(dT)18 and dTTP as the DNA template-primer and 2′-deoxyribonucleoside 5′-triphosphate (dNTP) substrate, respectively. VK2, VK3, and their synthesized derivatives (i.e., MK-3, MK-2 and MK-1) were dissolved in dimethyl sulfoxide (DMSO) at various concentrations and sonicated for 30 s. The sonicated samples (4 μL) were mixed with 16 μL of each pol enzyme (final amount, 0.05 units) in 50 mM Tris-HCl (pH 7.5) containing 1 mM dithiothreitol, 50% glycerol and 0.1 mM EDTA, and kept at 0 °C for 10 min. These inhibitor–enzyme mixtures (8 μL) were added to 16 μL of each standard enzyme reaction mixture (50 mM Tris-HCl [pH 7.5], 1 mM dithiothreitol, 1 mM MgCl2, 15% glycerol, 10 μM poly(dA)/oligo(dT)18 and 10 μM [^3H]-dTTP), and incubation was carried out at 37 °C for 60 min, except for Taq pol, which was incubated at 74 °C for 60 min. Activity without the inhibitor was considered to be 100%, and the activity remaining at each concentration of inhibitor was determined relative to this value. One unit of pol activity was defined as the amount of enzyme that catalyzed the incorporation of 1 nmol dNTP (dTTP) into the synthetic DNA template-primer (poly(dA)/oligo(dT)18, A/T = 2/1) in 60 min at 37 °C under normal reaction conditions for each enzyme (scintillation counts: approximately 1 pmol of incorporated radioactive nucleotides = 100 cpm).

The next experiment has as its target T2, Taq DNA polymerase (Thermus aquaticus, UniProt P19821).
T2 construct: purchased
Kind of experiment: DNA polymerase activity assay, Taq pol. The experiment is classed as biochemical. The following applies: prokaryotic pol; incubated at 74 °C; read-out: IC50 Value of MK-2, Taq DNA polymerase. As to the method:
as §1
(§2) The components of the pol assay were poly(dA)/oligo(dT)18 and dTTP as the DNA template-primer and 2′-deoxyribonucleoside 5′-triphosphate (dNTP) substrate, respectively. VK2, VK3, and their synthesized derivatives (i.e., MK-3, MK-2 and MK-1) were dissolved in dimethyl sulfoxide (DMSO) at various concentrations and sonicated for 30 s. The sonicated samples (4 μL) were mixed with 16 μL of each pol enzyme (final amount, 0.05 units) in 50 mM Tris-HCl (pH 7.5) containing 1 mM dithiothreitol, 50% glycerol and 0.1 mM EDTA, and kept at 0 °C for 10 min. […] Activity without the inhibitor was considered to be 100%, and the activity remaining at each concentration of inhibitor was determined relative to this value. […]

In the next experiment the target is T3, Human DNA polymerase ɛ (Homo sapiens, UniProt Q07864).
T3 construct: made in house
Kind of experiment: DNA polymerase activity assay, human pol ɛ. Type of experiment: biochemical. The following applies: B-family pol; read-out: IC50 Value of MK-2, Human DNA polymerase ɛ. As to the method: as §1, §2

The target of experiment [1] is B-family pols (mammalian). Kind of experiment: DNA polymerase activity assay, mammalian B-family pols. The experiment is classed as biochemical, mammals. The settings on record: range over mammalian B-family pols α, δ, ɛ; read-out: 50% inhibition of the B family of pols. As to the method:
as §1, §2

The target in experiment [2] is Y-family pols (mammalian). Kind of experiment: DNA polymerase activity assay, mammalian Y-family pols. The experiment is classed as biochemical, mammals. The settings on record: range over mammalian Y-family pols η, ι, κ; read-out: 50% inhibition of the Y family of pols. As to the method: as §1, §2
The target of another experiment is T4, T4 polynucleotide kinase (Enterobacteria phage T4, UniProt P06855).
T4 construct: purchased
Kind of experiment: DNA metabolic enzyme assay, T4 polynucleotide kinase. The following applies: other DNA metabolic enzyme; read-out: IC50 Value of MK-2, T4 polynucleotide kinase. Type of experiment: biochemical. As to the method: as §1

The next experiment concerns the target T5, Human DNA polymerase η (Homo sapiens, UniProt Q9Y253).
T5 construct: made in house
Kind of experiment: DNA polymerase activity assay, human pol η. Type of experiment: biochemical. The following applies: Y-family pol; read-out: IC50 Value of MK-2, Human DNA polymerase η. How it is done: as §1, §2

The target of the next experiment is T6, T4 DNA polymerase (Enterobacteria phage T4, UniProt P04415).
T6 construct: purchased
Kind of experiment: DNA polymerase activity assay, T4 pol. Type of experiment: biochemical. The settings on record: prokaryotic pol; read-out: IC50 Value of MK-2, T4 DNA polymerase. How it is done: as §1, §2

For a further experiment, the target named is T7, E. coli DNA polymerase I (Escherichia coli, UniProt P00582).
T7 construct: purchased
Kind of experiment: DNA polymerase activity assay, E. coli pol I. Type of experiment: biochemical. The settings on record: prokaryotic pol; read-out: IC50 Value of MK-2, E. coli DNA polymerase I. How it is done:
as §1, §2

Experiment [3] addresses T8, Fruit fly DNA polymerase α (Drosophila melanogaster, UniProt P26019).
T8 construct: made in house
Kind of experiment: DNA polymerase activity assay, fruit fly pol α. Type of experiment: biochemical. The settings on record: insect pol; read-out: IC50 Value of MK-2, Fruit fly DNA polymerase α. As to the method: as §1, §2

The target in experiment [4] is T9, Fruit fly DNA polymerase ɛ (Drosophila melanogaster, UniProt Q9VCN1).
T9 construct: made in house
Kind of experiment: DNA polymerase activity assay, fruit fly pol ɛ. Type of experiment: biochemical. The following applies: insect pol; read-out: IC50 Value of MK-2, Fruit fly DNA polymerase ɛ. As to the method:
as §1, §2

T5 sequence (Q9Y253 1-511 limits assumed): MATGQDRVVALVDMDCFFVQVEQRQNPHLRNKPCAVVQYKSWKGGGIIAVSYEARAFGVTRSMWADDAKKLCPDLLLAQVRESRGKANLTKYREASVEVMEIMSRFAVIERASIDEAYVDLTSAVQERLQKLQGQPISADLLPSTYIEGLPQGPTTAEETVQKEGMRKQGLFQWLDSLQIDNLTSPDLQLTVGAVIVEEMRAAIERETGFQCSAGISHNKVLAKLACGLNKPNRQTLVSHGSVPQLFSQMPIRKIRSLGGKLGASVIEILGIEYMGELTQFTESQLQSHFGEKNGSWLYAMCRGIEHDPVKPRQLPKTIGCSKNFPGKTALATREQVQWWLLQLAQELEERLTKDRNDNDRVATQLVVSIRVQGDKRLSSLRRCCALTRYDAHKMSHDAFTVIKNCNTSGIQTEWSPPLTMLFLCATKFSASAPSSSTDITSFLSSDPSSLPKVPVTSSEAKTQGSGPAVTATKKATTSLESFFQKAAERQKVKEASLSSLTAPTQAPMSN
T3 sequence (Q07864 whole entry): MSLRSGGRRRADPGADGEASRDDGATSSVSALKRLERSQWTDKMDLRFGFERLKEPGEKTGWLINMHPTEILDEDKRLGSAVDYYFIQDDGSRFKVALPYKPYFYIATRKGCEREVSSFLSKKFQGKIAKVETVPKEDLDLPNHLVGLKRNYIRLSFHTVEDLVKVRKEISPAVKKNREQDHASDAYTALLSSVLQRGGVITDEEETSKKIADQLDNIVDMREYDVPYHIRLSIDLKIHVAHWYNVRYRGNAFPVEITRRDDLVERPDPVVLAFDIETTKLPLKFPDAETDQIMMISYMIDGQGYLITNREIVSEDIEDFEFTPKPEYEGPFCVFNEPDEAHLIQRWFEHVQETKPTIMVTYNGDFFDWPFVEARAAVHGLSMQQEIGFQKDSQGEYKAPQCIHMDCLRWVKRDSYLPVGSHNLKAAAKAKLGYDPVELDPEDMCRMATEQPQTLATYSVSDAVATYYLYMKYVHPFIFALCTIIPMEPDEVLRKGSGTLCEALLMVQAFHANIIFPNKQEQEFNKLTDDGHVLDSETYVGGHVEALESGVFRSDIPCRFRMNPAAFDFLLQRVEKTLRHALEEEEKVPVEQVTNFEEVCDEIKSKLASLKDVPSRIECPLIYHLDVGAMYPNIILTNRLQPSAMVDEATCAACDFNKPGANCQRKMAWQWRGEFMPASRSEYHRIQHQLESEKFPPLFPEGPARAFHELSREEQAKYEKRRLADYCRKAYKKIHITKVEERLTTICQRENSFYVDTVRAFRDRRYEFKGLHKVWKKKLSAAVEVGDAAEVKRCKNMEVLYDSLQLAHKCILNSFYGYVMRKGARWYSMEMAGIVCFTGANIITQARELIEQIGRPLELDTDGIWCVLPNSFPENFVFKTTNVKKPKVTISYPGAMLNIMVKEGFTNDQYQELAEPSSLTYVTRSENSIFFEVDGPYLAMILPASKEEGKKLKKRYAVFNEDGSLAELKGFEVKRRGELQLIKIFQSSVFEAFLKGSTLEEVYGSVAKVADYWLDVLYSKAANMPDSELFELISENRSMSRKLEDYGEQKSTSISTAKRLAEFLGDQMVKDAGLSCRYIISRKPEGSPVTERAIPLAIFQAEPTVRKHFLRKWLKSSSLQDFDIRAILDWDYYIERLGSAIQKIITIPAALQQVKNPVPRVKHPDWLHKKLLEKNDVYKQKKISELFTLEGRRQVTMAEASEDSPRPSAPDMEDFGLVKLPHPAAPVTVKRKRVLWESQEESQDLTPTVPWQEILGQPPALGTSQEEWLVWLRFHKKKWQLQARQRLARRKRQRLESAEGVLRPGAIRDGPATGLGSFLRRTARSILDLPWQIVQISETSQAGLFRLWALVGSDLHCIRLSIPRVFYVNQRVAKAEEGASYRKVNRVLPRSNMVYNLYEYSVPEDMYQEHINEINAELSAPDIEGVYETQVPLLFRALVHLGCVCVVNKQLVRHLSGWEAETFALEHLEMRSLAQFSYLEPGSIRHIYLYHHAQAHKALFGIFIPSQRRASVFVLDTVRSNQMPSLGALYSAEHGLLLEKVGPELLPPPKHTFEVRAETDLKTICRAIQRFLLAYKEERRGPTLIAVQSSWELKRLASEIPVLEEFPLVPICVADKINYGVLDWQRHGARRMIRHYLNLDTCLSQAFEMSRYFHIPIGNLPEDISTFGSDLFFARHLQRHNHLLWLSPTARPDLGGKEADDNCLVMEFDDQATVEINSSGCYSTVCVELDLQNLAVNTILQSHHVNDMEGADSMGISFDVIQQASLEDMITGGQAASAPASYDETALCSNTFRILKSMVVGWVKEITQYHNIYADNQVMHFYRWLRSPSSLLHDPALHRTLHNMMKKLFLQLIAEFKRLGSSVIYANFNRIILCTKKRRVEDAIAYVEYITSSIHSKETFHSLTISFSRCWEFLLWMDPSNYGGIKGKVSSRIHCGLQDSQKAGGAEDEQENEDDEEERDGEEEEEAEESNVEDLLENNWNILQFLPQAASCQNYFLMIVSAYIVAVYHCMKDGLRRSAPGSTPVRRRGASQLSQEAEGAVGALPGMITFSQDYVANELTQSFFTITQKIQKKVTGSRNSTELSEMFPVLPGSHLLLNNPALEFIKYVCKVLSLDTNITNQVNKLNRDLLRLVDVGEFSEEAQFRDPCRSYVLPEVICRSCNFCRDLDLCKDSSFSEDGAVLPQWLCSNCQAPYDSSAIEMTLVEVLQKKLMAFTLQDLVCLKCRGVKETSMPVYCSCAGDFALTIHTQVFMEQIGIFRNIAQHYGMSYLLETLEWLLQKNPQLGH
T6 sequence (P04415 whole entry): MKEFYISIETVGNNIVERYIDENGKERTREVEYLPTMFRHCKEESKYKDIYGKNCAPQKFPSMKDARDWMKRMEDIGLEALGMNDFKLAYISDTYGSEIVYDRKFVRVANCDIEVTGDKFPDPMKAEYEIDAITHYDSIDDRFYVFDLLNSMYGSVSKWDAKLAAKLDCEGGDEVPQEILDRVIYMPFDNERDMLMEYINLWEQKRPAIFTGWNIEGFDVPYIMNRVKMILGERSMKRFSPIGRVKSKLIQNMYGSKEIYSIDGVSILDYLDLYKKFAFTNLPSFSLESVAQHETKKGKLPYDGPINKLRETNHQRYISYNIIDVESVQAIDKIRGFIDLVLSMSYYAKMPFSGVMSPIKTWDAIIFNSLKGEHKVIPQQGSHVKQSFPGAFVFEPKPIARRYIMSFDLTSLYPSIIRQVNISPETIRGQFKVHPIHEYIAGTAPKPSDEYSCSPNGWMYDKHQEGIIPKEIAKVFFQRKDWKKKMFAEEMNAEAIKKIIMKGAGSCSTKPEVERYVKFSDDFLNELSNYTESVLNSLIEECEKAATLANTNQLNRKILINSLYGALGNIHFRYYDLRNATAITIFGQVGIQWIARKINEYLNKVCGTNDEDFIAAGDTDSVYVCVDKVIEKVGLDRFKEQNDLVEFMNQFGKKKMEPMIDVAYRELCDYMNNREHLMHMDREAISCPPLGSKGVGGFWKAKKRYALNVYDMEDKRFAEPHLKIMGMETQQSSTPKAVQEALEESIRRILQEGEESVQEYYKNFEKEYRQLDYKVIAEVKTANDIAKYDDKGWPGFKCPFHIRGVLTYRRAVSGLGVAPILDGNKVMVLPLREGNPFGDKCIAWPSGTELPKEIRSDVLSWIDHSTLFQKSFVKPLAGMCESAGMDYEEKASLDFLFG
T4 sequence (P06855 whole entry): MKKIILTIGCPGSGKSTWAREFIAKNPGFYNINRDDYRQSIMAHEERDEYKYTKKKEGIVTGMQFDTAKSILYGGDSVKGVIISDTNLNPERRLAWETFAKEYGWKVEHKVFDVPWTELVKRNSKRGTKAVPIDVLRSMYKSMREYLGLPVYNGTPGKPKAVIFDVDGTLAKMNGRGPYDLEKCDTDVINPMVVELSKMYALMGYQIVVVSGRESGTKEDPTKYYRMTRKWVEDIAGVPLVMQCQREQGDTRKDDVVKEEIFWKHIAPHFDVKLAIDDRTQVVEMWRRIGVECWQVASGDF
T2 sequence (P19821 whole entry): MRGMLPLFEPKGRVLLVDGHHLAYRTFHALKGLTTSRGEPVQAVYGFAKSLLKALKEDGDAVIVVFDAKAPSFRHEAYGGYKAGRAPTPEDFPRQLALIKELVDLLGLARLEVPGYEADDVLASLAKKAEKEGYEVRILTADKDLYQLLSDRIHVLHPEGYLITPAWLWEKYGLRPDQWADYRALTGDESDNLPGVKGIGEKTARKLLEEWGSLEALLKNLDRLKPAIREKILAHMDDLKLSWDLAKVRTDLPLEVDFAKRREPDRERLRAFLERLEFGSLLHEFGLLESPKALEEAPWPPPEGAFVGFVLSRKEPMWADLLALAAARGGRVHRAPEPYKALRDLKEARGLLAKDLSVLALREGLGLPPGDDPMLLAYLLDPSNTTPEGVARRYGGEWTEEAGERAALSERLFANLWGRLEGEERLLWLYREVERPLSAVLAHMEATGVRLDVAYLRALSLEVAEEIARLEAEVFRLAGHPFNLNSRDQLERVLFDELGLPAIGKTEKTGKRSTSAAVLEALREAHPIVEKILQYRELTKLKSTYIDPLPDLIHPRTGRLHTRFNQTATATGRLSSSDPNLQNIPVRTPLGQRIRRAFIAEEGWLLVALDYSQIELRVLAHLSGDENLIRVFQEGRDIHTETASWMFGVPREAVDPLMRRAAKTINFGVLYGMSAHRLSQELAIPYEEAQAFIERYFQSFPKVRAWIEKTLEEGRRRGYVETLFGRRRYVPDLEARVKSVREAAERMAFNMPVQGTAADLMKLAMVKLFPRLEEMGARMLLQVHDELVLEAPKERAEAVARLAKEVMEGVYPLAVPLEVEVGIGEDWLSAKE

Consider `CC(C)=CCC/C(C)=C/CC/C(C)=C/CC/C(C)=C/CC1=C(C)C(=O)c2ccccc2C1=O` [MK-4, menaquinone 4, reference compound], for which the “Inhibitory effect on human pol γ activity” value on Human DNA polymerase γ (50 μM of each compound, Figure 2) is given as “had no effect on pol activity”.
As to `CC(C)=CCC/C(C)=C/CC1=C(C)C(=O)c2ccccc2C1=O` [MK-2], the IC50 at Taq DNA polymerase was greater than 200 µM; at Human DNA polymerase ɛ, 28.2 ± 1.6 µM; in experiment [1], 27.6 to 29.1 µM; in experiment [2], 35.3 to 39 µM; at T4 polynucleotide kinase, greater than 200 µM; on Human DNA polymerase γ (A-family pol, poly(dA)/oligo(dT)18 and dTTP, read-out: IC50 Value of MK-2, Human DNA polymerase γ), 68.8 ± 3.4 µM. Moreover, the IC50 on Human DNA polymerase η is 37.8 ± 2.2 µM; on T4 DNA polymerase, greater than 200 µM; on E. coli DNA polymerase I it was greater than 200 µM; in experiment [3], 34 ± 2 µM; in experiment [4], 36.7 ± 2.1 µM.

The values are drawn from article PMC3083694, “Effects of Intermediates between Vitamins K2 and K3 on Mammalian DNA Polymerase Inhibition and Anti-Inflammatory Activity” (International Journal of Molecular Sciences, 2011).
